Literature values as cited in patent publication US20060160230A1, “Wipes and methods for removal of metal contamination from surfaces” (The Government of the United States of America as …, priority 2005, published 2006).

Assays:
[1] = 10% citric acid lotion applied topically for a three month period (Bernstein et al. 1997)
[2] = 1999; rinse-off cosmetic products

| Molecule | clinical signs of adverse effects [1] | safety conclusion of CIR Expert Panel [2] |
| --- | --- | --- |
| O=C(O)CC(O)(CC(=O)O)C(=O)O [citric acid] | No clinical signs of adverse effects |  |
| isostearamidopropyl morpholine lactate [ISML] |  | considered safe for use in rinse-off cosmetic products |
